Assay results as given in patent publication US8609173B2, “Compositions comprising sweetness enhancers and methods of making them” (Senomyx Inc., priority 2008, dated 2013).

Legend:
External panelists = assay: Line scale (15-point sucrose equivalence) sensory test, Example 5, sucrose or LSB, pH 7.1; assay type: in vivo, Human
Procedure: (§1) Several types of sensory tests were used to determine the efficacy of 3-(4-amino-2,2-dioxide-1H-benzo[c][1,2,6]thiadiazin-5-yloxy)-2′,2′-dimethyl-N-propylpropanamide 3-(4-amino-2,2-dioxide-1H-benzo[c][1,2,6]thiadiazin-5-yloxy)-2′,2′-dimethyl-N-propylpropanamide in enhancing the sweetness of sucrose. Two types of tests were conducted: • 1) Sensory scaling tests were performed using a 15-point percent sucrose equivalence scale for sweetness in order to evaluate sweetness enhancement 3-(4-amino-2,2-dioxide-1H-benzo[c][1,2,6]thiadiazin-5-yloxy)-2′,2′-dimethyl-N-propylpropanamide 3-(4-amino-2,2-dioxide-1H-benzo[c][1,2,6]thiadiazin-5-yloxy)-2′,2′-dimethyl-N-propylpropanamide in sucrose or in fructose. • 2) Paired comparison tests (2-alternative forced choice difference tests) were used to determine sweetness equivalence for solutions of sucrose vs. 3-(4-amino-2,2-dioxide-1H-benzo[c][1,2,6]thiadiazin-5-yloxy)-2′,2′-dimethyl-N-propylpropanamide 3-(4-amino-2,2-dioxide-1H-benzo[c][1,2,6]thiadiazin-5-yloxy)-2′,2′-dimethyl-N-propylpropanamide or buffer vs. 3-(4-amino-2,2-dioxide-1H-benzo[c][1,2,6]thiadiazin-5-yloxy)-2′,2′-dimethyl-N-propylpropanamide 3-(4-amino-2,2-dioxide-1H-benzo[c][1,2,6]thiadiazin-5-yloxy)-2′,2′-dimethyl-N-propylpropanamide. Stimuli:
Tests were performed with sucrose or fructose. The sweetener was evaluated with and/or without 3-(4-amino-2,2-dioxide-1H-benzo[c][1,2,6]thiadiazin-5-yloxy)-2′,2′-dimethyl-N-propylpropanamide 3-(4-amino-2,2-dioxide-1H-benzo[c][1,2,6]thiadiazin-5-yloxy)-2′,2′-dimethyl-N-propylpropanamide at the appropriate concentration(s).
3-(4-amino-2,2-dioxide-1H-benzo[c][1,2,6]thiadiazin-5-yloxy)-2′,2′-dimethyl-N-propylpropanamide was prepared as a concentrated stock solution in ethanol to ensure dissolution of the 3-(4-amino-2,2-dioxide-1H-benzo[c][1,2,6]thiadiazin-5-yloxy)-2′,2′-dimethyl-N-propylpropanamide. Therefore, all taste solutions contained ethanol in the final solution. Samples without 3-(4-amino-2,2-dioxide-1H-benzo[c][1,2,6]thiadiazin-5-yloxy)-2′,2′-dimethyl-N-propylpropanamide also contained an equivalent concentration of ethanol. For samples involving 3-(4-amino-2,2-dioxide-1H-benzo[c][1,2,6]thiadiazin-5-yloxy)-2′,2′-dimethyl-N-propylpropanamide at 5-10 ppm (up to 28 μM), the final concentration of ethanol was 0.2%; 30-40 μM, 0.4% ethanol; 50 μM, 0.5% ethanol; and 100 μM, 1% ethanol.
Taste samples were also prepared in low sodium phosphate buffer (pH 7.1; “LSB”) lacking sucrose to evaluate the taste of 3-(4-amino-2,2-dioxide-1H-benzo[c][1,2,6]thiadiazin-5-yloxy)-2′,2′-dimethyl-N-propylpropanamide alone. Low sodium phosphate buffer consists of 0.3 mM KCl, 0.5 mM Na2HPO4, and 0.175 mM KH2PO4.
In scaling test situations, the samples were rated on a 15-point scale for sweetness, ranging from 0=0% sucrose to 15=15% sucrose. To evaluate attributes other than sweetness, references are used for training and are prepared according to the table below. Note that each reference was given a score of 5 on the 15-point scale.
External panelists were used for the tests. The exact number of panelists is reported with test results. Subjects were instructed not to eat or drink anything (except water) for at least 1 hour prior to the test.
Panelists rinsed their mouths with water prior to starting any test. Samples were presented to panelists in a randomized, counterbalanced order. Panelists rinsed with water and had up to a 1 minute delay to clear the mouth of any tastes after each evaluation. Two replicates of each test were performed, unless otherwise noted.
In scaling tests, panelists rate samples monadically for the attributes listed above (see Stimuli). In paired comparison tests, panelists taste pairs of solutions and indicate which sample is perceived to be sweeter.
Attributes of interest are reported for each scaling taste test.
Panelists rinsed their mouths with water prior to starting any test. Samples were presented to panelists in a randomized, counterbalanced order. […]

Panelists = assay: Paired comparison taste test, Example 7, sucrose or fructose solutions; assay type: in vivo, Human; conditions: 1% Sucrose chosen, vs 28 μM (9.9 ppm) compound; n = 32
Procedure: as §1
Panelists evaluated two solutions in a paired comparison taste test procedure. They were instructed to select the sweeter of the two samples. They were also asked to comment on how difficult it was to tell the difference in sweetness between both samples and if any off tastes were perceived.
Panelists evaluated two solutions in a paired comparison taste test procedure and were instructed to select the sweeter of the two samples.

## OC[C@H]1O[C@@](CO)(O[C@H]2O[C@H](CO)[C@@H](O)[C@H](O)[C@H]2O)[C@@H](O)[C@@H]1O [Sucrose, sucrose]
External panelists; 1% Sucrose, Table 25, n = 30
  Average Sweetness: 1.2
External panelists; 1% Sucrose, Table 26, n = 30
  Average Bitterness: 0.4
External panelists; 2% Sucrose, Table 20, n = 30
  Average Sweetness: 2.3
External panelists; 2% Sucrose, Table 21, n = 30
  Average Bitterness: 0.3
External panelists; 2% Sucrose, Table 22, n = 14
  Average Sweetness: 2.3
External panelists; 2% Sucrose, Table 25, n = 30
  Average Sweetness: 2.2
External panelists; 2% Sucrose, Table 26, n = 30
  Average Bitterness: 0.3
External panelists; 2% Sucrose, Table 27, n = 28
  Average Sweetness: 2.0
External panelists; 2% Sucrose, Table 28, n = 28
  Average Bitterness: 0.1
External panelists; 4% Sucrose, Table 20, n = 30
  Average Sweetness: 4.2
External panelists; 4% Sucrose, Table 21, n = 30
  Average Bitterness: 0.2
External panelists; 4% Sucrose, Table 22, n = 14
  Average Sweetness: 4.3
External panelists; 4% Sucrose, Table 25, n = 30
  Average Sweetness: 4.4
External panelists; 4% Sucrose, Table 26, n = 30
  Average Bitterness: 0.3
External panelists; 4% Sucrose, Table 27, n = 28
  Average Sweetness: 4.2
External panelists; 4% Sucrose, Table 28, n = 28
  Average Bitterness: 0.1
External panelists; 6% Sucrose, Table 16, n = 15
  Average Sweetness: 6.3
External panelists; 6% Sucrose, Table 17, n = 15
  Average Bitterness: 0.3
External panelists; 6% Sucrose, Table 18, n = 24
  Average Sweetness: 6.2
External panelists; 6% Sucrose, Table 19, n = 24
  Average Bitterness: 0.2
External panelists; 6% Sucrose, Table 20, n = 30
  Average Sweetness: 5.8
External panelists; 6% Sucrose, Table 21, n = 30
  Average Bitterness: 0.2
External panelists; 6% Sucrose, Table 22, n = 14
  Average Sweetness: 5.7
External panelists; 6% Sucrose, Table 23, n = 30
  Average Sweetness: 6.7
External panelists; 6% Sucrose, Table 24, n = 30
  Average Bitterness: 0.4
External panelists; 6% Sucrose, Table 25, n = 30
  Average Sweetness: 6.4
External panelists; 6% Sucrose, Table 26, n = 30
  Average Bitterness: 0.6
External panelists; 6% Sucrose, Table 27, n = 28
  Average Sweetness: 6.1
External panelists; 6% Sucrose, Table 28, n = 28
  Average Bitterness: 0.1
External panelists; 8% Sucrose, Table 16, n = 15
  Average Sweetness: 7.7
External panelists; 8% Sucrose, Table 17, n = 15
  Average Bitterness: 0.1
External panelists; 8% Sucrose, Table 18, n = 24
  Average Sweetness: 8.3
External panelists; 8% Sucrose, Table 19, n = 24
  Average Bitterness: 0.1
External panelists; 8% Sucrose, Table 23, n = 30
  Average Sweetness: 8.3
External panelists; 8% Sucrose, Table 24, n = 30
  Average Bitterness: 0.4
External panelists; 8% Sucrose, Table 25, n = 30
  Average Sweetness: 8.7
External panelists; 8% Sucrose, Table 26, n = 30
  Average Bitterness: 0.3
External panelists; 8% Sucrose, Table 27, n = 28
  Average Sweetness: 8.4
External panelists; 8% Sucrose, Table 28, n = 28
  Average Bitterness: 0.2
External panelists; 9% Sucrose, Table 16, n = 15
  Average Sweetness: 9.0
External panelists; 9% Sucrose, Table 17, n = 15
  Average Bitterness: 0.1
External panelists; 9% Sucrose, Table 18, n = 24
  Average Sweetness: 9.3
External panelists; 9% Sucrose, Table 19, n = 24
  Average Bitterness: 0.1
External panelists; 10% Sucrose, Table 16, n = 15
  Average Sweetness: 9.2
External panelists; 10% Sucrose, Table 17, n = 15
  Average Bitterness: 0.2
External panelists; 10% Sucrose, Table 18, n = 24
  Average Sweetness: 9.8
External panelists; 10% Sucrose, Table 19, n = 24
  Average Bitterness: 0.1
External panelists; 10% Sucrose, Table 23, n = 30
  Average Sweetness: 10.3
External panelists; 10% Sucrose, Table 24, n = 30
  Average Bitterness: 0.2
External panelists; 10% Sucrose, Table 25, n = 30
  Average Sweetness: 10.5
External panelists; 10% Sucrose, Table 26, n = 30
  Average Bitterness: 0.3
External panelists; 10% Sucrose, Table 27, n = 28
  Average Sweetness: 9.6
External panelists; 10% Sucrose, Table 28, n = 28
  Average Bitterness: 0.1
External panelists; 12% Sucrose, Table 18, n = 24
  Average Sweetness: 11.1
External panelists; 12% Sucrose, Table 19, n = 24
  Average Bitterness: 0.0
External panelists; 12% Sucrose, Table 23, n = 30
  Average Sweetness: 11.2
External panelists; 12% Sucrose, Table 24, n = 30
  Average Bitterness: 0.3
Panelists
  Sample selected as more sweet by panelists, Total: 28
